Tests used:
[1] = test system: Staphylococcus aureus; test: Assessment of bactericidal activity (HUVEC media); type: cell-based
Experimental: FIG. 6B illustrates that neither cytotoxicity nor bactericidal activity is detected. Cultures of Staphylococcus aureus that had been incubated with the vehicle control DMSO or with ML 141 (1 hour, 37° C., 225 rpm) were serially diluted, plated onto blood agar, and incubated (18 hours, 37° C.). Colonies were enumerated and colony forming units (CFU)/ml determined. CFU/ml were not different amongst the groups (p>0.05 by t-test; n=2/treatment). […]

[2] = test system: vinculin-containing adhesion complexes; test: Vinculin-containing adhesion complexes in HUVEC; type: cell-based, human; conditions: ML 141 10 μM, 18-20 h, vehicle control 64%
Experimental: FIG. 10A is an image depicting ML 141 inhibition of CDC42 limiting the formation of adhesion complexes. Human umbilical vein endothelial cells (HUVEC) were incubated (18-20 h) with the vehicle control dimethyl sulfoxide (DMSO) or with ML 141 (10 μM). Pretreated HUVEC were fixed, permeabilized, blocked, and stained with anti-vinculin followed by anti-mouse Alexa Fluor 488. Arrows indicate vinculin-containing complexes. Data are presented as the % of cells where vinculin-containing adhesion complexes were detected. 100-200 cells/treatment were evaluated from randomly selected fields (p<0.001 by χ^2). Scale bar 50 μm.

[3] = test system: Human umbilical vein endothelial cells; test: Transmission electron microscopy of infected HUVEC; type: cell-based; conditions: ML 141 10 μM, S. aureus MOI 30, 2 h
Experimental: FIG. 9 is an image depicting ML 141 limiting damage to host cells. Human umbilical vein endothelial cells were incubated with the vehicle control polyethylene glycol (PEG) or with ML 141 (10 μM) 18-20 h prior to infection with Staphylococcus aureus at a multiplicity of infection of 30 (2 h). Following infection, extracellular bacteria were removed by incubating with lysostaphin and gentamicin (45 min), antimicrobials with limited mammalian membrane permeability. Antimicrobial-containing media was replenished and incubation extended an additional 24 h. Cells were fixed, stained, and examined by transmission electron microscopy. White arrow indicates mitochondria. Black arrow indicates filopodia. White arrowhead indicates membranous structure surrounding bacteria. Black arrowhead indicates dividing bacteria. Scale bar is 5 μm.
HUVEC were plated onto glass coverslips at […], pretreated and infected at a multiplicity of infection (MOI) of 30 for 2 h. Extracellular bacteria were removed and cells incubated for an additional 24 h in media containing antibiotics. […]

[4] = test system: host cell; test: Host cell cytotoxicity in vitro (preliminary data); type: cell-based
[5] = test system: RAW 264.7 cells; test: Cytotoxicity by propidium iodide, RAW 264.7 cells; type: cell-based; conditions: RAW 264.7 pretreated 18-20 h

In the case of COc1ccc(C2CC(c3ccccc3)=NN2c2ccc(S(N)(=O)=O)cc2)cc1 (stereo not drawn) [ML 141, 4-[3-(4-methoxyphenyl)-5-phenyl-3,4-dihydropyrazol-2-yl]benzenesulfonamide], the “CFU (×10^8 ± SEM), Compound (10 μM)” value ([1]; 1.2 × 10^8 CFU S. aureus, 1 h in HUVEC media, 10 μM) was 8.8 ± 2.9 ×10^8 CFU, the “Bactericidal activity (in words)” value ([1]; S. aureus incubated 1 h with compound, FIG. 6B, Tables 6 and 7) was “not detected” and the “% of cells with vinculin-containing adhesion complexes” value [2] was 37%. For the same compound, the “host cell ultrastructure 24 h post-invasion (organelles)” value [3] was “remained intact”, the “concentration at which host cell cytotoxicity was undetectable” value [4] was “below 30 μM” and the “Mean fluorescence intensity (×10^3 ± SEM), Compound (10 μM)” value [5] was 2.5 ± 0.3 ×10^3.
